EC50 data for five compounds are collected here from PubChem BioAssay AID504824 (The Scripps Research Institute Molecular Screening Center, 2011).

Activity calls are given as the source filed them.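 How the source made its calls: active means compound reaching half of full procaspase-3 activation at 10 µM or lower; inactive means the rest.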 Some results are limits rather than exact numbers.

What is called EC50 is the midpoint of the concentration-response curve.

This test addresses Caspase-3 (Homo sapiens) (UniProt P42574). As to the kind of experiment: procaspase-3 activation potency of dual candidates, late-stage follow-up, counter-screen for dual procaspase-3/7 activator project, biochemical, absorbance, PC-3 D3A mutant, powder samples (AID 504824). The following applies: recombinant PC-3 D3A, Ac-DEVD-pNA absorbance 405 nm.

Sequence of Caspase-3 (Homo sapiens) (P42574 whole entry D9A/D28A/D175A): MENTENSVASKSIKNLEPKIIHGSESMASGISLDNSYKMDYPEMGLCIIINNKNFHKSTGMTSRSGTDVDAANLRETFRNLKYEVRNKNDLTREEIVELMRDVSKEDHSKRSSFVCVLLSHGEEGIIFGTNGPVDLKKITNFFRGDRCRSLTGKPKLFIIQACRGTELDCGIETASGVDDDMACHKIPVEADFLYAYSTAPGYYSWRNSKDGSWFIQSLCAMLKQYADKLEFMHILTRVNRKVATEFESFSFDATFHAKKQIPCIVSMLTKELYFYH

In the case of `COC(=O)C1=NN(c2ccc(Cl)cc2)C2C(=O)N(c3ccccc3OC)C(=O)C12` (stereo not given), the EC50 is > 85.3 µM (inactive).
As for `O=C(Nc1ccc(Cc2ccncc2)cc1)C1CCC(N2C(=O)C3C4C=CC(C5CC45)C3C2=O)CC1` (stereo not given), the EC50 is > 85.3 µM (inactive).
As for `COc1ccccc1N1C(=O)C2C(C(=O)c3ccccc3)=NN(c3ccccc3)C2C1=O` (stereo not given), the EC50 was > 85.3 µM (inactive).
For `Cc1[nH]nc2c1C(c1c[nH]c3ccccc13)C(C#N)=C(N)O2` (stereo not given), the EC50 was 3.62 µM.
The figure for `O=C(C1=NN(c2ccccc2)C2C(=O)N(c3ccccc3)C(=O)C12)c1ccccc1` (stereo not given) is > 85.3 µM (inactive).
